Experiment: O2 evolution from [Mn2O3{Me3tacn}2](PF6)2-catalysed decomposition of H2O2 with stabilizer
Type: physicochemical
Protocol: A 50% strength aqueous solution of H2O2 (304 mg; 4.46 mmol) was added to 454 mg (4.46 mmol) of methyl pyruvate and to 535 mg (4.46 mmol) of glyoxylic methyl ester methyl hemiacetal, respectively. In the case of methyl pyruvate, a marked evolution of heat was discovered during the addition. After one hour, the H2O2/α-keto ester mixture was mixed with 1 ml of solvent and added to a suspension of 1.0 mg of [Mn2O3{Me3tacn}2](PF6)2 catalyst in 4 ml of solvent. The suspension was introduced into a 50 ml flask which was maintained at room temperature in a water bath. As a result of this addition, in cases where undissolved catalyst was still present, the catalyst dissolved completely.
As a comparison, a suspension of 1.0 mg of [Mn2O3{Me3tacn}2](PF6)2 catalyst in 4 ml of solvent was combined with a 50% strength aqueous solution of H2O2 (304 mg; 4.46 mmol) and 1 ml of solvent without stabilizer.
The amount of oxygen which was evolved from the decomposition of the hydrogen peroxide was determined as a function of time using a Brooks meter, which permitted measurement of the gas flow and the total amount of evolved gas.

Measured: O2 evolution V(O2) (Vmax(O2)*100%)

COC(=O)C(O)OC (stereo not drawn) [GMHA, glyoxylic methyl ester methyl hemiacetal]
0%: solv. acetic acid, t 5 min | solv. acetone, t 5 min | solv. acetone, t 10 min | solv. acetone, t 15 min | solv. acetone, t 20 min | solv. acetone, t 25 min | solv. acetone, t 30 min | solv. acetone, t 35 min | solv. acetone, t 40 min | solv. acetone, t 50 min | solv. acetonitrile, t 5 min | solv. acetonitrile, t 10 min | solv. acetonitrile, t 15 min | solv. acetonitrile, t 20 min | solv. acetonitrile, t 25 min | solv. acetonitrile, t 30 min | solv. acetonitrile, t 35 min | solv. acetonitrile, t 40 min | solv. acetonitrile, t 50 min | solv. acetonitrile, t 60 min | solv. acetonitrile, t 70 min | solv. acetonitrile, t 80 min | solv. ethyl acetate, t 5 min | solv. t-butanol, t 5 min | solv. t-butanol, t 10 min | solv. t-butanol, t 15 min | solv. t-butanol, t 20 min | solv. t-butanol, t 25 min | solv. t-butanol, t 30 min | solv. t-butanol, t 35 min | solv. t-butanol, t 40 min | solv. t-butanol, t 50 min | solv. t-butanol, t 60 min | solv. t-butanol, t 70 min | solv. t-butanol, t 80 min
8%: solv. ethyl acetate, t 15 min
2%: solv. acetic acid, t 10 min
4%: solv. ethyl acetate, t 10 min
1%: solv. methanol, t 5 min | solv. methanol, t 10 min | solv. methanol, t 15 min | solv. methanol, t 20 min | solv. methanol, t 25 min | solv. methanol, t 30 min | solv. methanol, t 35 min | solv. methanol, t 40 min | solv. methanol, t 50 min | solv. methanol, t 60 min | solv. methanol, t 70 min | solv. methanol, t 80 min
3%: solv. acetic acid, t 15 min | solv. acetic acid, t 20 min | solv. acetic acid, t 25 min | solv. acetic acid, t 30 min | solv. acetic acid, t 35 min | solv. acetic acid, t 40 min | solv. acetic acid, t 50 min | solv. acetic acid, t 60 min | solv. acetic acid, t 70 min | solv. acetic acid, t 80 min
9%: solv. acetone, t 60 min | solv. ethyl acetate, t 20 min | solv. ethyl acetate, t 25 min | solv. ethyl acetate, t 30 min | solv. ethyl acetate, t 35 min | solv. ethyl acetate, t 40 min | solv. ethyl acetate, t 50 min | solv. ethyl acetate, t 60 min | solv. ethyl acetate, t 70 min | solv. ethyl acetate, t 80 min
12%: solv. acetone, t 70 min | solv. acetone, t 80 min

COC(=O)C(C)=O [methyl pyruvate]
25%: solv. acetonitrile, t 25 min
8%: solv. acetic acid, t 5 min
1%: solv. methanol, t 1 min
3%: solv. acetic acid, t 4 min | solv. acetonitrile, t 10 min
9%: solv. acetonitrile, t 15 min | solv. ethyl acetate, t 15 min | solv. ethyl acetate, t 20 min | solv. ethyl acetate, t 25 min | solv. ethyl acetate, t 30 min | solv. ethyl acetate, t 35 min | solv. ethyl acetate, t 50 min | solv. ethyl acetate, t 60 min | solv. ethyl acetate, t 70 min | solv. ethyl acetate, t 80 min
18%: solv. acetonitrile, t 20 min
20%: solv. acetic acid, t 10 min | solv. acetone, t 70 min
35%: solv. acetonitrile, t 35 min
24%: solv. acetic acid, t 15 min | solv. acetic acid, t 20 min | solv. acetic acid, t 25 min | solv. acetic acid, t 30 min | solv. acetic acid, t 35 min | solv. acetic acid, t 50 min | solv. acetic acid, t 60 min | solv. acetic acid, t 70 min | solv. acetic acid, t 80 min
12%: solv. acetone, t 60 min
6%: solv. acetone, t 50 min | solv. ethyl acetate, t 10 min
0%: solv. acetic acid, t 1 min | solv. acetone, t 1 min | solv. acetone, t 4 min | solv. acetone, t 5 min | solv. acetone, t 10 min | solv. acetone, t 15 min | solv. acetone, t 20 min | solv. acetone, t 25 min | solv. acetone, t 30 min | solv. acetone, t 35 min | solv. acetonitrile, t 1 min | solv. acetonitrile, t 4 min | solv. acetonitrile, t 5 min | solv. ethyl acetate, t 1 min | solv. ethyl acetate, t 4 min | solv. ethyl acetate, t 5 min | solv. t-butanol, t 1 min | solv. t-butanol, t 4 min | solv. t-butanol, t 5 min | solv. t-butanol, t 10 min | solv. t-butanol, t 15 min | solv. t-butanol, t 20 min | solv. t-butanol, t 25 min | solv. t-butanol, t 30 min | solv. t-butanol, t 35 min | solv. t-butanol, t 50 min | solv. t-butanol, t 60 min | solv. t-butanol, t 70 min | solv. t-butanol, t 80 min
2%: solv. methanol, t 4 min | solv. methanol, t 5 min | solv. methanol, t 10 min | solv. methanol, t 15 min | solv. methanol, t 20 min | solv. methanol, t 25 min | solv. methanol, t 30 min | solv. methanol, t 35 min | solv. methanol, t 50 min | solv. methanol, t 60 min | solv. methanol, t 70 min | solv. methanol, t 80 min
38%: solv. acetonitrile, t 50 min | solv. acetonitrile, t 60 min | solv. acetonitrile, t 70 min | solv. acetonitrile, t 80 min
28%: solv. acetone, t 80 min
30%: solv. acetonitrile, t 30 min

Reference: patent US6677466B1, “Method for stabilizing hydrogen peroxide” (DSM Fine Chemicals Austria NFG GmbH & Co KG, priority 1999, dated 2004)
